Measurements reported in patent EP0097072A1, “Derivatives of benzylsulfinyl acetamides, their therapeutic use and process for their preparation” (LABORATOIRE L. LAFON Société anonyme dite:, priority 1982, dated 1983).

Columns and labels:
Format in all cases: in vivo
[1] = tested on: souris; assay: Action on spontaneous motility (actimeter); conditions: mouse, recorded 30 min, starting half an hour after dosing
Experimental: (§1) Les résultats des essais qui ont été entrepris ont été résumés ci-après. Dans ces essais, le CRL 40569 (produit de l'exemple 1) en suspension dans une solution aqueuse de gomme arabique, et le CRL 40615 (produit de l'exemple 2) en solution dans de l'eau distillée ont été administrés par voie intrapéritonéale sous un volume de 20 ml/kg chez la souris mâle et sous un volume de 5 ml/kg chez le rat mâle.
Une demi-heure après avoir reçu les produits à tester, les souris (6 par dose et par produit, 12 témoins pour chaque produit) sont placées en actimètre ou leur motilité est enregistrée pendant 30 minutes.

[2] = tested on: souris; assay: Action on intergroup aggressiveness (number of fights); conditions: mouse, notably at 512 mg/kg I.P.; groups joined half an hour after dosing, fights counted over 10 minutes
Experimental: as §1
Après avoir séjourné pendant 3 semaines de part et d'autre d'une cloison opaque séparant leur cage par le milieu, des groupes de 3 souris reçoivent le CRL 40615. Une demi-heure plus tard, les deux groupes d'une même cage sont réunis par retrait de la cloison et ou note le nombre de combats qui surviennent en 10 minutes.

[3] = tested on: souris mâle; assay: Toxicity: DL-0 (maximal non-lethal dose); conditions: male mouse, I.P. route
Experimental: as §1
La DL-0 (dose maximale non mortelle) chez la souris mâle par voie I.P. pour les CRL 40569 et CRL 40615 est supérieure à 1024 mg/kg.

[4] = tested on: souris mâle; assay: Global behaviour and reactivities in the mouse; conditions: I.P., 512 mg/kg, observed 15 min to 24 h after administration
Experimental: as §1
(§2) Des lots de 3 animaux par dose et par produit sont observés avant,puis 15 minutes, 30 minutes, 1 h, 2h, 3h et 24 h après administration des CRL 40569 et CRL 40615.

[5] = tested on: rat mâle; assay: Global behaviour and reactivities in the rat; conditions: I.P.
Experimental: as §1, §2

[6] = tested on: rats; assay: Interaction with amphetamine (amphetamine stereotypies); conditions: rat, 256 mg/kg I.P.; amphetamine 2 mg/kg I.P. half an hour after the compound
Experimental: as §1
Des lots de 6 rats reçoivent une injection par voie I.P. de 2 mg/kg d'amphétamine une demi-heure après le CRL 40569.

Structure (SMILES) | motilité spontanée ([1]; I.P., high dose (512 mg/kg)) | nombre de combats [2] | DL-0 (dose maximale non mortelle) [3] [mg/kg] | comportement global et réactivités ([4]; 128 mg/kg and 32 mg/kg) | comportement global et réactivités ([5]; 256 mg/kg) | motilité spontanée ([1]; I.P., 32, 128 and 512 mg/kg) | intensité des stéréotypies amphétaminiques [6] | comportement global et réactivités [4] | comportement global et réactivités ([5]; at none of the doses used (256, 64, 16 and 4 mg/kg))
COc1ccc(C[S+]([O-])CC(=O)NCCN2CCOCC2)cc1 (stereo not drawn) [CRL 40615, N-β-morpholinoéthyl-4-méthoxybenzylsulfinyl-acétamide] | diminue la motilité spontanée | diminue le nombre de combats | > 1024 | sédation pendant 15 à 30 minutes puis une excitation tardive qui se manifeste 24 h après administration | diminution du tonus musculaire |  |  |  | 
COc1ccc(C[S+]([O-])CC(N)=O)cc1 (stereo not shown) [CRL 40569, 4-méthoxybenzylsulfinyl-acétamide] |  |  | > 1024 |  |  | diminution de la motilité spontanée | diminue légèrement l'intensité des stéréotypies amphétaminiques | diminution fugace de la réactivité au toucher, de la force et du tonus musculaire | n'a entraîné des modifications nettes du comportement et des réactivités
